Experimental data reported in patent US4312948A, “Enzymic microbiological process for producing optically active aminoacids starting from hydantoins and/or racemic carbamoyl derivatives” (priority 1978, dated 1982).

What follows are compounds tested against T1, carbamoylytic enzyme (Enzyme II, carbamoylase) (Agrobacterium radiobacter, UniProt Q44185) (assay: enzymic activity test of acetonic powder of Agrobacterium sp. cells on N-carbamoyl aminoacid substrates (NH4+ by phenol-hypochlorite method)). Conditions: 20 mM substrate in pyrophosphate buffer 0.1 M pH 7.7, acetonic powder, 40° C., 1-hour incubation, under nitrogen.
T1 construct: endogenous in cells; host or cells: Agrobacterium sp. cells, acetone-dried powder (crude, enzyme not purified)
T1 sequence (Q44185 whole entry): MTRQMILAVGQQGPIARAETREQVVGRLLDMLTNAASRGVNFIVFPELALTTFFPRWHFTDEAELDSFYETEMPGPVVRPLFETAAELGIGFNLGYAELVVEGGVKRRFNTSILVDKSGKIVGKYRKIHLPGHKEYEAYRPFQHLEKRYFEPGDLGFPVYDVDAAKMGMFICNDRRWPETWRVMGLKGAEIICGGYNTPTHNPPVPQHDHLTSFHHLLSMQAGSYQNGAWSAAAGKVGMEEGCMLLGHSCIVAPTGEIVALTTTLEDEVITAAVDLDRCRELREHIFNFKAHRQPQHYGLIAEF
Format: biochemical
Method: Cells of Agrobacterium sp. strain were prepared as described in Example 1. A few grams of moist cellule slurry was slurried in pyrophosphate buffer (0.1 M pH 7.7) and subjected to acetonic treatment in the cold.
After removing acetone by filtration, the acetonic preparation thus obtained was dried to constant weight in vacuum at 35° C. The dried material was homogenized in a mortar and powder thus obtained was used for the enzymic activity tests.
The caetonic powder was assayed on the following substrates: N-carbamoyl-D-(-)-alanine, N-carbamoyl-D(-) valine, N-carbamoyl-D-(-)glutamic acid, N-carbamoyl-D(-)-parahydroxyphenylglycine,N-carbamoyl-D(-)-paramethoxyphenylglycine, N-carbamoyl-D-(-)-phenylglycine, N-carbamoyl-L(+)-phenylglycine, N-carbamoyl-D(-)-phenylalanine, N-carbamoyl-L(+)-glutamic acid and N-carbamoyl-D(-) (2-thienyl)-glycine.
Thus, 20 mM solution were prepared of each carbamoyl derivative in pyrophosphate buffer 0.1 M pH 7.7, and, to 10 mls of each solution there was added an adequate quantity of acetonic powder, equal for each substrate.
The incubation was carried out under a UPP nitrogen blanket with stirring at a temperature of 40° C. After 1-hour incubation, the quantity of the produced aminoacid was measured by determining in the reaction mixtures the concentration of the NH4^+ ion which has been reached, with the phenol-hypochlorite method indicated in Example 2.

Point of comparison: `NC(=O)N[C@H](CCC(=O)O)C(=O)O` [N-carbamoyl-D(-)glutamic acid], “% ACTIVITY (hydrolytic activity, assuming as 100 the activity against N-carbamoyl-D(-)-parahydroxyphenylglycine)” value 21.7%. Against it:
- C[C@@H](NC(N)=O)C(=O)O [N-carbamoyl-D-(-)-alanine] — higher, 57.5%
- NC(=O)N[C@H](C(=O)O)c1ccccc1 [N-carbamoyl-L(+)-phenylglycine] — lower, 0%
- NC(=O)N[C@@H](C(=O)O)c1ccc(O)cc1 [N-carbamoyl-D(-)-parahydroxyphenylglycine] — higher, 100.0%
- COc1ccc([C@@H](NC(N)=O)C(=O)O)cc1 [N-carbamoyl-D(-)-paramethoxyphenylglycine] — higher, 40.0%
- NC(=O)N[C@@H](CCC(=O)O)C(=O)O [N-carbamoyl-L(+)glutamic acid] — lower, 0%
- NC(=O)N[C@H](Cc1ccccc1)C(=O)O [N-carbamoyl-D(-)-phenylalanine] — higher, 50.0%
- CC(C)[C@@H](NC(N)=O)C(=O)O [N-carbamoyl-D(-)-valine] — higher, 34.25%
- NC(=O)N[C@@H](C(=O)O)c1cccs1 [N-carbamoyl-D(-)-(2-thienyl)glycine] — higher, 40.7%
- NC(=O)N[C@@H](C(=O)O)c1ccccc1 [N-carbamoyl-D(-)-phenylglycine] — higher, 81.25%

Same assay, conditions: 20 mM substrate, pyrophosphate buffer 0.1 M pH 7.7, 40° C., 1-hour incubation

For `NC(=O)N[C@@H](C(=O)O)c1ccc(O)cc1` [N-carbamoyl-D(-)-parahydroxyphenylglycine], the “activity of the carbamoylytic enzyme, ranking among substrates” value was “highest activity”.
